Reference: EP4803074A1, “PHARMACEUTICAL COMPOSITION OF PYRIMIDINE DERIVATIVE” (TYK Medicines, Inc., priority 2023, dated 2025)
Like-named read-outs stand apart in the source and are kept apart here.

Columns and labels:
Permeability = format: in vitro ADME; settings: result in words
Excerpt: (§1) Drugs can be absorbed at many different sites along the gastrointestinal tract (including the stomach, duodenum, jejunum, ileum, and colon) following oral administration. Due to the significant pH gradient between the stomach (pH 1 - 3.5) and the small intestine (pH 4 - 8), the pH varies at each absorption site. […] In such cases, where the solubility of a drug varies with pH-and specifically when solubility is highest at acidic pH levels-a problem arises: the drug may precipitate out of solution as it passes through the gastrointestinal tract, but the drug should remain in solution to be absorbed, such precipitation may affect the extent and rate of absorption.

[1] = Impurity B content of process samples on storage at room temperature (HPLC); format: physicochemical; settings: 20 days (Laboratory placement)
Excerpt: Impurity B (Impurity RRT1.5, i.e., relative retention time 1.5) is a degradation impurity identified in the stability studies of this formulation and is a specific impurity that requires close monitoring. […] Therefore, the study of Impurity B content is also a key point of the invention. The method for determining the content of Impurity B is as follows: [table] [table] • Heptafluorobutyric acid: Chromatographic grade Water: Ultrapure water Ammonia solution: Chromatographic grade or analytical grade • Acetonitrile: Chromatographic grade Methanol: Chromatographic grade • TY-9591 Reference Standard: In-house preparation or commercially purchased • 3. […]

pH-dependent solubility = format: physicochemical; settings: result in words
Excerpt: as §1

[2] = Single-dose pharmacokinetic study, fasting vs high-fat meal; settings: human, in vivo, po, 80 mg, healthy volunteers
[3] = After high-fat meal, single oral dose of 80 mg of Tablet 22
[4] = Fasting, single oral dose of 80 mg of Tablet 22

permeability (Permeability): moderate permeability
Impurity B/% [1]: 0.13%
solubility at pH 1 (hydrochloric acid) compared to pH 6.8 (sodium hydroxide-sodium dihydrogen phosphate buffer, 25 mM) (pH-dependent solubility): higher solubility
AUC(0-inf) [2, 3]: 4350 ng·h/mL
Cmax [2, 3]: 69 ng/mL
Tmax [2, 3]: 5.95 h
half-life [2, 3]: 48.6 h
AUC(0-t) ([2]; After high-fat meal, single oral dose of 80 mg of Tablet 22, read-out: AUC0-72h): 2670 ng·h/mL
AUC(0-t) ([2]; After high-fat meal, single oral dose of 80 mg of Tablet 22, read-out: AUC0-t): 4300 ng·h/mL
Tmax ([2]; Fasting, single oral dose of 80 mg of Tablet 22 (40 mg*2 tablets)): 5.99 h
AUC(0-inf) [2, 4]: 3930 ng·h/mL
Cmax [2, 4]: 67.8 ng/mL
half-life [2, 4]: 51.2 h
AUC(0-t) ([2]; Fasting, single oral dose of 80 mg of Tablet 22, read-out: AUC0-72h): 2330 ng·h/mL
AUC(0-t) ([2]; Fasting, single oral dose of 80 mg of Tablet 22, read-out: AUC0-t): 3880 ng·h/mL
Structure (SMILES): [2H]C([2H])([2H])n1cc(-c2ccnc(Nc3cc(NC(=O)C=C)c(N(C)CCN(C)C)cc3OC)n2)c2ccccc21 [TY-9591, N-(2-((2-(dimethylamino)ethyl) (methyl)amine)-4-methoxy-5-((4-(1-deuteriatedmethyl-1H-indol-3-yl)pyrimidin-2-yl)amine)phenyl)acrylamide]
